Measurements as given in US5202130A, “Suppression of eczematous dermatitis by calcium transport inhibition” (The Johns Hopkins University, priority 1989, dated 1993).
Where a name gives a salt, the structure may show the parent alone.

How the values were obtained:
[1] = stated with intraperitoneal administration in mice; no test described; cited from earlier work
[2] = test system: contact sensitization against DNCB; test: Inhibition of sensitization by diltiazem against DNCB (ear swelling); format: in vivo, BALB/c mice
Method: Diltiazem HCl (1,5-Benzothiazepin-4(5H)one, 3-acetoy lox-5-(2-(dimethylamine)ethyl)-2, 3-dihydro-2(4-methoxyphenyl)-, monohydrochloride, (+)-cis) was injected intraperitoneally in a dose of 30 mg/kg (LD50 =60 mg per kg) two times a day for three days. Two hours after the first injection, mice were sensitized by applying DNCB to the shaved dorsal back skin. Contact sensitization against DNCB was determined five days later.

[3] = following intraperitoneal administration; cited from earlier work
[4] = test system: epidermal Langerhans cells (ELC); test: Density and morphology of epidermal Langerhans cells, ATPase and Ia staining; format: in vivo, BALB/c mice
Text: Mice were sacrificed by cervical dislocation and their ears were amputated at the base. The skin was separated from underlying cartilage by dissection and pressed dermal side up onto an adhesive surface of a double stick tape (Dermotome Tape, 3M, St. Paul, Minn.), that had previously been fixed onto a glass slide. […] (25,26), then the epidermis was separated as an intact sheet from the underlying dermis.
Epidermal sheets were stained for ATPase activity according to MacKenzie and Squier (27). Briefly, epidermal sheets were fixed in Tris-maleic acid buffered 4% paraformaldehyde, pH 7.3, for 20 minutes at 4° C. After three washes with a 0.9% NaCl solution, the epidermal sheets were incubated at pH 7.3 in a solution containing 10 mg ATP, 5 ml of 10% MgSO4, 3 ml of 2% […], and 42 ml Tris-maleic acid buffer for one hour at 37° C., washed with 0.9% NaCl solution, and reacted with 0.1% ammonium sulfide for five minutes at room temperature. The stained specimens were mounted in a 9:1 mixture of PBS/glycerol.
Ia-positive cells were stained as follows: EDTA separated epidermal specimens, washed in PBS for 30 minutes, were fixed in cold acetone (-20° C.) for 20 minutes. After washing with PBS, the epidermal sheets were incubated with a 1:100 dilution of anti-mouse I-A^d monoclonal antibody (Becton Dickinson, Mountain View, Calif.) at 4° C. overnight (28). Subsequently, specimens were washed in PBS for two hours and exposed to fluorescein conjugated F(ab')2 fragment goat anti-mouse IgG (Organon Teknika Corp., West Chester, Pa.) at a 1:50 dilution for two hours at 37° C. The epidermal sheets were mounted in Perma Fluor (Lipshaw, Detroit, Mich.).
Slides were coded and read in a "blinded" manner. The density of ELC within each epidermal sheet was determined by using a dual epifluorescent and light microscope (Olympus BH-2, Japan) with a calibrated net micrometer grid. ATPase-positive ELC and Ia-positive ELC present in a 0.25 mm^2 area were counted in two random fields per sheet (total: 16 fields per experimental group). ELC density was recorded as the number of cells per mm^2 (mean ±S.E.). Statistical significance of the differences between treatment and control groups was calculated using a two-talled Wilcoxon Rank Sum Test. Differences between groups were considered significant at p=0.05.

[5] = 0.25 mg per animal intraperitoneally for five days, vs control animals

Compound	LD50 [1] [mg per kg]	reduction in the contact hypersensitivity response ([2]; 30 mg/kg intraperitoneally two times a day for three days, p=0.001) [%]	decrease in ear thickness 24 h post-challenge ([2]; FIG. 3, vs. solvent only, p<0.001) [%]	difference in ear swelling between pretreated and control animals ([2]; statement follows negative controls (challenged, not sensitized) 0.03±0.01 mm)	ear swelling ([2]; vehicle control 0.15±0.02 mm) [mm]	accumulation in the skin [3]	decrease in density of ATPase positive cells [4, 5] [%]	decrease in number of Ia-positive cells [4, 5] [%]	Density of Langerhans cells in ear skin, ATPase ([4]; ATPase staining, ± S.E., 0.9% NaCl 807 ± 55) [cells/mm^2]	Density of Langerhans cells in ear skin, Ia ([4]; Ia staining, ± S.E., 0.9% NaCl 830 ± 46) [cells/mm^2]	ELC "rounded up" and without dendrites ([4]; in focal areas, ATPase and Ia staining)	staining of "round" cells by the ATPase technique ([4]; subjectively measured by darkening of the cell body)
COc1ccc([C@@H]2Sc3ccccc3N(CCN(C)C)C(=O)[C@@H]2OC(C)=O)cc1 [diltiazem, 1,5-Benzothiazepin-4(5H)one, 3-acetoy lox-5-(2-(dimethylamine)ethyl)-2,3-dihydro-2(4-methoxyphenyl)-, monohydrochloride, (+)-cis]	60	67	67	not statistically significant	0.05±0.01	–	–	–	–	–	–	–
lanthanum citrate [La^3+ citrate]	–	–	–	–	–	accumulated in the skin	13	14	702 ± 49	715 ± 59	approximately 20%	more darkly stained
